The source of these data is patent US20140155384A1, “COMPOUNDS AND METHODS OF TREATING DIABETES” (Medivation Technologies, Inc., priority 2011, published 2014).

The target of assay [1] is T1, human recombinant adrenergic α2B receptor (Homo sapiens, UniProt P18089).
T1 construct: expressed in transfected cells; host or cells: CHO-K1
T1 sequence (P18089 1-450): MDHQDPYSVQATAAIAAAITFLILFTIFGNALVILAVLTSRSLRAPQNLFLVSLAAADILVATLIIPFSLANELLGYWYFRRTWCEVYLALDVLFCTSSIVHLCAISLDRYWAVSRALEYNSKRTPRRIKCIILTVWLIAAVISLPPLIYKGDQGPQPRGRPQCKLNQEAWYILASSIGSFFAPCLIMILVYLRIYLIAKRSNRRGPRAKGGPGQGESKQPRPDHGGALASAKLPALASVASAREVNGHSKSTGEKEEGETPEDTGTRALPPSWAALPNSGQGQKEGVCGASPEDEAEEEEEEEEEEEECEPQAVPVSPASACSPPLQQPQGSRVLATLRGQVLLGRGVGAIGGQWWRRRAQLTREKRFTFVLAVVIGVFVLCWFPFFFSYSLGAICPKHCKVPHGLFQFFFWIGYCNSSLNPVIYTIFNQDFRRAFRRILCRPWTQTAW
Kind of assay: Radioligand binding, adrenergic α2B receptor ([3H]Rauwolscine). The note with it: 0.1 μM compound, CHO-K1 cells, read-out: Percentage inhibition of ligand binding, Adrenergic α2B. The procedure, abridged:
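Percent inhibition of specific [3H]Rauwolscine (2.5 nM) binding, compounds at ≤1 μM, 1% DMSO vehicle, 10 μM prazosin defining nonspecific. Receptor: human α2B expressed in CHO-K1 cells, 60 min incubation at 25 °C in Tris-HCl pH 7.4 buffer (MgCl2, EDTA, BSA); filtered, washed, counted.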

The target of assay [2] is T2, rat adrenergic α1B receptor (Rattus norvegicus, UniProt P15823).
T2 construct: rat adrenergic α1B receptor obtained from Wistar Rat liver; from tissue; host or cells: Wistar rat liver
T2 sequence (P15823 1-515): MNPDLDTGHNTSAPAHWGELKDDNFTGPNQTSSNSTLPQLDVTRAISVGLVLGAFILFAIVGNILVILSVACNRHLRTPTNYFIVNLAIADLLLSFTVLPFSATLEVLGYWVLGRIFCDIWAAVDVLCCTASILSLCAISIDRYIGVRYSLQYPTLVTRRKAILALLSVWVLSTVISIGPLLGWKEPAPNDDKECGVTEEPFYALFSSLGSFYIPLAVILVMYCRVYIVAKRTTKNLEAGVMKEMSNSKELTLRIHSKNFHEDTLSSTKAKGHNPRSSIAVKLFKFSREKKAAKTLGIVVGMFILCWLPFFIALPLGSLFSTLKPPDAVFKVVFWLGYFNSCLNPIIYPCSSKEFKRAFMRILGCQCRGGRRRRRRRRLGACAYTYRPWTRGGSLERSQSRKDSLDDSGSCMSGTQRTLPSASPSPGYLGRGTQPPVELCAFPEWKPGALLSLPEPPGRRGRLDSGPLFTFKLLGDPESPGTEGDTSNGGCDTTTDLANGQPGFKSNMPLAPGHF
Kind of assay: Radioligand binding, adrenergic α1B receptor ([3H]Prazosin). The note with it: 0.1 μM compound, Wistar rat liver, read-out: Percentage inhibition of ligand binding, Adrenergic α1B. The procedure, abridged:
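Wistar rat liver α1B receptor preparation incubated with 0.25 nM [3H]prazosin and compound for 60 min at 25° C in 50 mM Tris-HCl pH 7.4, 0.5 mM EDTA; nonspecific binding defined with 10 μM phentolamine.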

For assay [3], the target named is T3, human recombinant adrenergic α2A receptor (Homo sapiens, UniProt P08913).
T3 construct: expressed in transfected cells; host or cells: insect Sf9 cells
T3 sequence (P08913 1-465): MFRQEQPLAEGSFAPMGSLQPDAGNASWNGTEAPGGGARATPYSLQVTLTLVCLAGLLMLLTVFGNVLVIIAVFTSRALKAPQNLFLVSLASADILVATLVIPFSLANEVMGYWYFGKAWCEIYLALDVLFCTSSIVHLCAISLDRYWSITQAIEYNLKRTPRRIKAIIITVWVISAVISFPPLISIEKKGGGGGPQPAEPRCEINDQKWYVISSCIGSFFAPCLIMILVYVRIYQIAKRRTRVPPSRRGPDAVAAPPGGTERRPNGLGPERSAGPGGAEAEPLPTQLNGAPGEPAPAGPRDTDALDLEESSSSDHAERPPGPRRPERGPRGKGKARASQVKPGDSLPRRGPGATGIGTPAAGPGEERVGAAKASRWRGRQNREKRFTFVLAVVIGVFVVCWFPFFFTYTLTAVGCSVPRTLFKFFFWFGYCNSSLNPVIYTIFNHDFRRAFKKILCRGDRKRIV
Briefly: Radioligand binding, adrenergic α2A receptor ([3H]MK-912). The note with it: 0.1 μM compound; Sf9 cells; 1 nM [3H]MK-912; read-out: Percentage inhibition of ligand binding, Adrenergic α2A. The procedure, abridged: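 Percent inhibition of specific [3H]MK-912 (1 nM) binding measured by filtration counting, compounds tested at ≤1 μM in 1% DMSO. Receptor: human α2A from Sf9 cells; incubation 60 min, 25 °C, pH 7.4; 10 μM WB-4101 defined nonspecific binding.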

Assay [4] concerns the target T4, human recombinant adrenergic α1D receptor (Homo sapiens, UniProt P25100).
T4 construct: expressed in transfected cells; host or cells: HEK-293
T4 sequence (P25100 1-572): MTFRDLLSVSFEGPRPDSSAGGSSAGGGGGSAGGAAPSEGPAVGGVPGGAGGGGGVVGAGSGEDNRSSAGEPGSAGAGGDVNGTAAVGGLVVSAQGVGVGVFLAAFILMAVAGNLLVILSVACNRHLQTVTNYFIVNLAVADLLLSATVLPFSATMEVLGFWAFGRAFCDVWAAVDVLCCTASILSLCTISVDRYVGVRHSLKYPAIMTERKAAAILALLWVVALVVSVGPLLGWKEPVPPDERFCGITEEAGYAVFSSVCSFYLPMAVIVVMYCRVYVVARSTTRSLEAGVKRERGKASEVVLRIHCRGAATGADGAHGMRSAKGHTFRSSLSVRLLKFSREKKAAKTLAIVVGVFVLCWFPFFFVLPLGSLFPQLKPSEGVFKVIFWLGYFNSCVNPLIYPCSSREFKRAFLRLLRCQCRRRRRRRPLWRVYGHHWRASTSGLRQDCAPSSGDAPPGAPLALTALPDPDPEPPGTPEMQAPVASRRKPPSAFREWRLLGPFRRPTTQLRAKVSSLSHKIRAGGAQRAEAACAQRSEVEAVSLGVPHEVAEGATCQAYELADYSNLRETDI
Briefly: Radioligand binding, adrenergic α1D receptor ([3H]Prazosin). The note with it: 0.1 μM compound; HEK-293 cells; 0.6 nM [3H]Prazosin; read-out: Percentage inhibition of ligand binding, Adrenergic α1D. As to the method:
Compounds were incubated with 0.6 nM [3H]Prazosin for 60 min at 25° C. Non-specific binding was estimated in the presence of 10 μM phentolamine. Receptor proteins were filtered and washed, the filters were then counted to determine [3H]Prazosin specifically bound. Compounds were screened at 1 μM or lower, using 1% DMSO as vehicle. Biochemical assay results are presented as the percent inhibition of specific binding in Table 2.

A word on the inhibition: it is the drop in the measured response relative to a control, in per cent. On to `Cc1ccc2c(c1)c1c(n2-c2cccc(-c3ccc(F)nc3)c2)CCN(C)C1` [Compound 44, 5-(3-(6-fluoropyridin-3-yl)phenyl)-2,8-dimethyl-2,3,4,5-tetrahydro-1H-pyrido[4,3-b]indole], for which the inhibition at 0.1 µM in assay [1] came to 12%; in assay [2], 0%; in assay [3] it was 29%; in assay [4], 2%.
With `Cc1ccc2c(c1)c1c(n2-c2ccc(-c3ccc(F)cc3)cn2)CCN(C)C1` [Compound No. 140, 5-(5-(4-fluorophenyl)pyridin-2-yl)-2,8-dimethyl-2,3,4,5-tetrahydro-1H-pyrido[4,3-b]indole], the inhibition at 0.1 µM in assay [1] amounted to 96%; in assay [2], 69%; in assay [3], 70%; in assay [4], 56%.
Turning to `Cc1ccc2c(c1)c1c(n2-c2ccccc2-c2sccc2C)CCN(C)C1` [Compound No. 102, 2,8-dimethyl-5-(2-(3-methylthiophen-2-yl)phenyl)-2,3,4,5-tetrahydro-1H-pyrido[4,3-b]indole], the inhibition at 0.1 µM came to 90% in assay [1], 57% in assay [2], 85% in assay [3] and 50% in assay [4].
Regarding `CNC(=O)c1ccc(-c2cscc2-n2c3c(c4cc(C)ccc42)CN(C)CC3)cc1` [Compound No. 155], the inhibition at 0.1 µM in assay [1] is 74%; in assay [2], 43%; in assay [3], 9%; in assay [4], 63%.
As for `Cc1ccc2c(c1)c1c(n2-c2ccc(-c3ccnn3C)cn2)CCN(C)C1` [Compound No. 146, 2,8-dimethyl-5-(5-(1-methyl-1H-pyrazol-5-yl)pyridin-2-yl)-2,3,4,5-tetrahydro-1H-pyrido[4,3-b]indole], the inhibition at 0.1 µM in assay [1] was 54%; in assay [2], 70%; in assay [3], 26%; in assay [4] it was 79%.
For the molecule `Cc1ccc2c(c1)c1c(n2-c2ccccc2-c2cccc3[nH]ncc23)CCN(C)C1` [Compound No. 105, 5-(2-(1H-indazol-4-yl)phenyl)-2,8-dimethyl-2,3,4,5-tetrahydro-1H-pyrido[4,3-b]indole], the inhibition at 0.1 µM in assay [1] was found to be 84%; in assay [2], 71%; in assay [3] it was 79%; in assay [4], 65%.
With `Cc1ccc2c(c1)c1c(n2-c2cccc(-c3ccc(C)nc3)c2)CCN(C)C1` [Compound 60, 2,8-dimethyl-5-(3-(6-methylpyridin-3-yl)phenyl)-2,3,4,5-tetrahydro-1H-pyrido[4,3-b]indole], the inhibition at 0.1 µM was 14% in assay [1], 4% in assay [2], 62% in assay [3] and 9% in assay [4].
In the case of `Cc1ccc2c(c1)c1c(n2-c2ccc(-c3c(C)noc3C)cn2)CCN(C)C1` [Compound No. 137, 4-(6-(2,8-dimethyl-3,4-dihydro-1H-pyrido[4,3-b]indol-5(2H)-yl)pyridin-3-yl)-3,5-dimethylisoxazole], the inhibition at 0.1 µM in assay [1] was 92%; in assay [2], 72%; in assay [3] it was 57%; in assay [4], 74%.
For `Cc1ccc2c(c1)c1c(n2-c2cccc(-c3cccn3C)c2)CCN(C)C1` [Compound No. 69, 2,8-dimethyl-5-(3-(1-methyl-1H-pyrrol-2-yl)phenyl)-2,3,4,5-tetrahydro-1H-pyrido[4,3-b]indole], the inhibition at 0.1 µM in assay [1] amounted to 3%; in assay [2] it was 11%; in assay [3] it was 39%; in assay [4], 9%.
Consider `Cc1ccc2c(c1)c1c(n2-c2ccc(-c3ccc4c(ccn4C)c3)cn2)CCN(C)C1` [Compound No. 136, 2,8-dimethyl-5-(5-(1-methyl-1H-indol-5-yl)pyridin-2-yl)-2,3,4,5-tetrahydro-1H-pyrido[4,3-b]indole], for which the inhibition at 0.1 µM was 105% in assay [1], 70% in assay [2], 59% in assay [3] and 59% in assay [4].
Turning to `CNC(=O)c1cccc(-c2cscc2-n2c3c(c4cc(C)ccc42)CN(C)CC3)c1` [Compound No. 154], the inhibition at 0.1 µM in assay [1] was found to be 42%; in assay [2], 46%; in assay [3] it was 20%; in assay [4] it was 70%.
For `Cc1ccc2c(c1)c1c(n2-c2cccc(-c3cncc4ccccc34)c2)CCN(C)C1` [Compound No. 67, 5-(3-(isoquinolin-4-yl)phenyl)-2,8-dimethyl-2,3,4,5-tetrahydro-1H-pyrido[4,3-b]indole], the inhibition at 0.1 µM in assay [1] is 13%; in assay [2], 2%; in assay [3], 39%; in assay [4] it was -1%.
As to `Cc1ccc2c(c1)c1c(n2-c2cccc(-c3ccc4[nH]cnc4c3)c2)CCN(C)C1` [Compound 54, 5-(3-(1H-benzo[d]imidazol-5-yl)phenyl)-2,8-dimethyl-2,3,4,5-tetrahydro-1H-pyrido[4,3-b]indole], the inhibition at 0.1 µM was 3% in assay [1], 8% in assay [2], 23% in assay [3] and -3% in assay [4].
Consider `CNC(=O)c1ccc(-c2ccccc2-n2c3c(c4cc(C)ccc42)CN(C)CC3)cc1` [Compound No. 72, 2′-(2,8-dimethyl-3,4-dihydro-1H-pyrido[4,3-b]indol-5(2H)-yl)-N-methylbiphenyl-4-carboxamide], for which the inhibition at 0.1 µM in assay [1] turned out to be 17%; in assay [2], 28%; in assay [3], 3%; in assay [4], 56%.
